Results on one compound are retold here after article PMC4980666, “N-acylhydrazone inhibitors of influenza virus PA endonuclease with versatile metal binding modes” (Scientific Reports, 2016).

pEC50: −log10 of the molar value.

The nature of data set [1]: MTS cell viability assay in uninfected MDCK cells. Conditions: dog. On the technique in general: Tetrazolium assays rely on reduction of a dye to a coloured formazan, in cell work by metabolically active cells.
Data set [2] in a line: MTS cell viability assay in untransfected HEK293T cells. Conditions: human, vRNP reconstitution assay Cytotoxicity CC50, untransfected HEK293T cells.
Data set [3] concerns influenza A virus (strain A/PR/8/34). Description: microbe, parasite or virus in culture. The class given is cell-based. The note with it: Influenza A virus, PR/8, MDCK, 24 h.
The target of data set [4] is influenza virus vRNPs reconstituted in HEK293T cells (Influenza A virus, UniProt P03433). Description: vRNP reconstitution assay in HEK293T cells. The class given is cell-based.

For orientation: CC50 means the concentration at which the toxic effect on the cells reaches its halfway point. One may read the EC90 as the concentration at which the effect reaches the 90% level. Usually EC99 stands for the concentration at which the effect reaches the 99% level. By pEC50 is commonly meant the negative decadic logarithm of the EC50, by convention in mol/L. A high value points to a low EC50. With `NC(=O)c1ncn([C@@H]2O[C@H](CO)[C@@H](O)[C@H]2O)n1` [Ribavirin, reference compound], the CC50 at 24 h in data set [1] and in data set [2] was greater than 200 µM throughout. In addition, the EC90 in data set [3] (read-out: Virus yield assay Antiviral activity EC90) was determined as 8.5 µM. Also, in data set [3] (read-out: Virus yield assay Antiviral activity EC99), the EC99 came to 13 µM. Also, the pEC50 in data set [4] was 5.03.
